Columns and labels:
Format in all cases: in vivo, SD male rats
Conditions in all cases: single dose, mean ± SD
[1] = test system: carrageenan-induced pain models; assay: Determination of paw swelling volumes, carrageenan-induced pain models
Procedure: The experimental results were expressed as “mean±standard deviation”. The data of each group were statistically analyzed using the SPSS16.0 software package to compare whether there were statistical differences among the groups. P<0.05 indicated a statistical difference. A total of 72 SD male rats aged 6 to 8 weeks, with body weights of 188-208 g, were divided into 9 groups, with 8 rats in each group. […] Then 20 mL of normal saline was added to the glass bottle. The glass bottle was placed on a magnetic stirrer, and magnetic stirring was performed for 6 hours to obtain a 3% carrageenan solution. The carrageenan solution was stored at 4° C. • 1 Fasting: no • 2 Administration route: IP (intraperitoneal injection) • 3 Administration volume: 5 mL/kg • 4 Administration frequency: single-dose administration • 5 Time of administration: administered immediately after induction Sivelestat sodium: 26 mg of sivelestat sodium (corresponding to a dosage of 10 mg/kg) was weighed. Part of normal saline was added, and sonication and vortexing were performed. The pH was adjusted with […] until a homogeneous solution was obtained, and finally, the volume was made up to 13.0 mL. Experimental samples with other dosages (30 mg/kg, 100 mg/kg) could be prepared according to the specific dosages with reference to a similar method. Parecoxib: 24 mg of parecoxib (corresponding to a dosage of 10 mg/kg) was weighed. Part of normal saline was added, and sonication and vortexing were performed. The pH was adjusted with 10 mol NaOH until a homogeneous solution was obtained, and finally, the volume was made up to 12.0 mL. Experimental samples with other dosages (20 mg/kg) could be prepared according to the specific dosages with reference to a similar method. Samples of other COX-2 inhibitors were prepared with reference to the similar method described above. [table] To measure the paw swelling volumes (paw volumes) of experimental rats, the animals were gently held with one hand, and their hind paws were placed into the instrument used to measure the paw volumes with the other hand. The size of the paw volume was recorded. The measurement was repeated twice, and the mean value was taken as the paw volume of the animals.

[2] = test system: carrageenan-induced pain models; assay: Determination of mechanical pain thresholds (electronic Von Frey Hairs), carrageenan-induced pain models
Procedure: The experimental results were expressed as “mean±standard deviation”. The data of each group were statistically analyzed using the SPSS16.0 software package to compare whether there were statistical differences among the groups. P<0.05 indicated a statistical difference. A total of 72 SD male rats aged 6 to 8 weeks, with body weights of 188-208 g, were divided into 9 groups, with 8 rats in each group. […] Then 20 mL of normal saline was added to the glass bottle. The glass bottle was placed on a magnetic stirrer, and magnetic stirring was performed for 6 hours to obtain a 3% carrageenan solution. The carrageenan solution was stored at 4° C. • 1 Fasting: no • 2 Administration route: IP (intraperitoneal injection) • 3 Administration volume: 5 mL/kg • 4 Administration frequency: single-dose administration • 5 Time of administration: administered immediately after induction Sivelestat sodium: 26 mg of sivelestat sodium (corresponding to a dosage of 10 mg/kg) was weighed. Part of normal saline was added, and sonication and vortexing were performed. The pH was adjusted with […] until a homogeneous solution was obtained, and finally, the volume was made up to 13.0 mL. Experimental samples with other dosages (30 mg/kg, 100 mg/kg) could be prepared according to the specific dosages with reference to a similar method. Parecoxib: 24 mg of parecoxib (corresponding to a dosage of 10 mg/kg) was weighed. Part of normal saline was added, and sonication and vortexing were performed. The pH was adjusted with 10 mol NaOH until a homogeneous solution was obtained, and finally, the volume was made up to 12.0 mL. Experimental samples with other dosages (20 mg/kg) could be prepared according to the specific dosages with reference to a similar method. Samples of other COX-2 inhibitors were prepared with reference to the similar method described above. [table] The animals were placed in a specially designed multi-unit metal mesh cage for pain detection, and allowed to acclimate to the environment for 10 minutes. After the grooming and exploratory activities of the animals ceased and the animals adapted to the detection environment, the sole of the hind limb on the side where carrageenan was injected in the rats was stimulated with electronic Von Frey Hairs. […] The value of the Von Frey Hairs at this time, which was the threshold of the mechanical pain response, was recorded with “gram” as the unit of detection. The detection was repeated twice. Then the mean value was taken as the final detection index. The determination of mechanical pain thresholds was performed at a total of 5 time points, including before administration and 1 h, 3 h, 4 h and 6 h after administration.

[3] = test system: carrageenan-induced pain models; assay: Determination of thermal radiation (thermal pain threshold), carrageenan-induced pain models
Procedure: The experimental results were expressed as “mean±standard deviation”. The data of each group were statistically analyzed using the SPSS16.0 software package to compare whether there were statistical differences among the groups. P<0.05 indicated a statistical difference. A total of 72 SD male rats aged 6 to 8 weeks, with body weights of 188-208 g, were divided into 9 groups, with 8 rats in each group. […] Then 20 mL of normal saline was added to the glass bottle. The glass bottle was placed on a magnetic stirrer, and magnetic stirring was performed for 6 hours to obtain a 3% carrageenan solution. The carrageenan solution was stored at 4° C. • 1 Fasting: no • 2 Administration route: IP (intraperitoneal injection) • 3 Administration volume: 5 mL/kg • 4 Administration frequency: single-dose administration • 5 Time of administration: administered immediately after induction Sivelestat sodium: 26 mg of sivelestat sodium (corresponding to a dosage of 10 mg/kg) was weighed. Part of normal saline was added, and sonication and vortexing were performed. The pH was adjusted with […] until a homogeneous solution was obtained, and finally, the volume was made up to 13.0 mL. Experimental samples with other dosages (30 mg/kg, 100 mg/kg) could be prepared according to the specific dosages with reference to a similar method. Parecoxib: 24 mg of parecoxib (corresponding to a dosage of 10 mg/kg) was weighed. Part of normal saline was added, and sonication and vortexing were performed. The pH was adjusted with 10 mol NaOH until a homogeneous solution was obtained, and finally, the volume was made up to 12.0 mL. Experimental samples with other dosages (20 mg/kg) could be prepared according to the specific dosages with reference to a similar method. Samples of other COX-2 inhibitors were prepared with reference to the similar method described above. [table] The animals were placed in a transparent plastic box, and could be allowed to acclimatize for 10 minutes before the test. The middle of the plantar surface of the hind limb on the side where carrageenan was injected in the rats was irradiated with a radiant heat light source to determine their thermal pain threshold. The detection was repeated twice. Then the mean value was taken as the final detection index.

[4] = 10 mg/kg intraperitoneal, 1 hour after administration
[5] = 10 mg/kg intraperitoneal, 3 hours after administration
[6] = 10 mg/kg intraperitoneal, 4 hours after administration
[7] = 10 mg/kg intraperitoneal, 6 hours after administration
[8] = 20 mg/kg intraperitoneal, 1 hour after administration
[9] = 20 mg/kg intraperitoneal, 3 hours after administration
[10] = 20 mg/kg intraperitoneal, 4 hours after administration
[11] = 20 mg/kg intraperitoneal, 6 hours after administration

## CCC(=O)NS(=O)(=O)c1ccc(-c2c(-c3ccccc3)noc2C)cc1 [parecoxib]
[1]; [4]
  Relative value of paw volumes: 4.34 ± 25.02%
[1]; [5]
  Relative value of paw volumes: 24.76 ± 11.32 %
[1]; [6]
  Relative value of paw volumes: 22.58 ± 18.82 %
[1]; [7]
  Relative value of paw volumes: 20.81 ± 12.66 %
[1]; [8]
  Relative value of paw volumes: 18.58 ± 45.76%
[1]; [9]
  Relative value of paw volumes: 31.45 ± 25.56 %
[1]; [10]
  Relative value of paw volumes: 19.47 ± 23.41%
[1]; [11]
  Relative value of paw volumes: 23.95 ± 15.74 %
[2]; [4]
  Relative value of Von Frey Hairs: 13.6 ± 5.9 %
[2]; [5]
  Relative value of Von Frey Hairs: 16.4 ± 4.2 %
[2]; [6]
  Relative value of Von Frey Hairs: 15.1 ± 4.5 %
[2]; [7]
  Relative value of Von Frey Hairs: 11.9 ± 5.8 %
[2]; [8]
  Relative value of Von Frey Hairs: 13.7 ± 7.5 %
[2]; [9]
  Relative value of Von Frey Hairs: 17.3 ± 7.9 %
[2]; [10]
  Relative value of Von Frey Hairs: 16.2 ± 4.2 %
[2]; [11]
  Relative value of Von Frey Hairs: 12.4 ± 3.9 %
[3]; [4]
  Relative value of thermal radiation: 34.6 ± 18.9 %
[3]; [5]
  Relative value of thermal radiation: 16.6 ± 16.7%
[3]; [6]
  Relative value of thermal radiation: 22.7 ± 13.8 %
[3]; [7]
  Relative value of thermal radiation: 14.6 ± 11.0 %
[3]; [8]
  Relative value of thermal radiation: 45.8 ± 25.1 %
[3]; [9]
  Relative value of thermal radiation: 58.5 ± 22.3 %
[3]; [10]
  Relative value of thermal radiation: 37.4 ± 26.7%
[3]; [11]
  Relative value of thermal radiation: 38.0 ± 11.0 %
